Values of other authors as cited in PMC9851200, “Multiparameter phenotypic screening for endogenous TFEB and TFE3 translocation identifies novel chemical series modulating lysosome function” (Autophagy, 2022).

Assays:
Design in all cases: method as in original PKIS2 published data
[1] = molecular target: T1, kinases (KINOMEscan panel) (Homo sapiens, UniProt Q8NFD2); details: ANKK1; Published KINOMEscan; ref original PKIS2 published data; cited from earlier work
T1 sequence (Q8NFD2 1-765): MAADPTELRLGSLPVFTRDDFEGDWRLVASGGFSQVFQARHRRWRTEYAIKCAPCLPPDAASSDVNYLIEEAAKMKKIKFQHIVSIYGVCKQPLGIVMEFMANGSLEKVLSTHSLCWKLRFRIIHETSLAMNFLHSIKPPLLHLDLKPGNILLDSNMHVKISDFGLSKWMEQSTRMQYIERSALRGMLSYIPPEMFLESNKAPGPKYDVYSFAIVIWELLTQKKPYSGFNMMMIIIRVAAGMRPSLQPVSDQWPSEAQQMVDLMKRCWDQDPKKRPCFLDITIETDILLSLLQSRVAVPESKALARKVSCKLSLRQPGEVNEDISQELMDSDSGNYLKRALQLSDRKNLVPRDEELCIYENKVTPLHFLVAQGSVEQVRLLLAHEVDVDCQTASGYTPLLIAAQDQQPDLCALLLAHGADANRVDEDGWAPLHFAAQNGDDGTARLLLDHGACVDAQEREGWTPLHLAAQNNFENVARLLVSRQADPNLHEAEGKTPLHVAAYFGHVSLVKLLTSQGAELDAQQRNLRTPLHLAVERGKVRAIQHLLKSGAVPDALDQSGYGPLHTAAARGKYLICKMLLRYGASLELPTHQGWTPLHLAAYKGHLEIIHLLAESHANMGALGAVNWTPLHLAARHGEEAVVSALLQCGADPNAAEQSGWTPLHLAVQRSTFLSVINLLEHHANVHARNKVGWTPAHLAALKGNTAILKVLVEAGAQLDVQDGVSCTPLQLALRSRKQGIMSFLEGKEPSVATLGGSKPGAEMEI

[2] = molecular target: T2, kinases (KINOMEscan panel) (Homo sapiens, UniProt P29323); details: EPHB2; Published KINOMEscan; ref original PKIS2 published data; cited from earlier work
T2 sequence (P29323 19-1055): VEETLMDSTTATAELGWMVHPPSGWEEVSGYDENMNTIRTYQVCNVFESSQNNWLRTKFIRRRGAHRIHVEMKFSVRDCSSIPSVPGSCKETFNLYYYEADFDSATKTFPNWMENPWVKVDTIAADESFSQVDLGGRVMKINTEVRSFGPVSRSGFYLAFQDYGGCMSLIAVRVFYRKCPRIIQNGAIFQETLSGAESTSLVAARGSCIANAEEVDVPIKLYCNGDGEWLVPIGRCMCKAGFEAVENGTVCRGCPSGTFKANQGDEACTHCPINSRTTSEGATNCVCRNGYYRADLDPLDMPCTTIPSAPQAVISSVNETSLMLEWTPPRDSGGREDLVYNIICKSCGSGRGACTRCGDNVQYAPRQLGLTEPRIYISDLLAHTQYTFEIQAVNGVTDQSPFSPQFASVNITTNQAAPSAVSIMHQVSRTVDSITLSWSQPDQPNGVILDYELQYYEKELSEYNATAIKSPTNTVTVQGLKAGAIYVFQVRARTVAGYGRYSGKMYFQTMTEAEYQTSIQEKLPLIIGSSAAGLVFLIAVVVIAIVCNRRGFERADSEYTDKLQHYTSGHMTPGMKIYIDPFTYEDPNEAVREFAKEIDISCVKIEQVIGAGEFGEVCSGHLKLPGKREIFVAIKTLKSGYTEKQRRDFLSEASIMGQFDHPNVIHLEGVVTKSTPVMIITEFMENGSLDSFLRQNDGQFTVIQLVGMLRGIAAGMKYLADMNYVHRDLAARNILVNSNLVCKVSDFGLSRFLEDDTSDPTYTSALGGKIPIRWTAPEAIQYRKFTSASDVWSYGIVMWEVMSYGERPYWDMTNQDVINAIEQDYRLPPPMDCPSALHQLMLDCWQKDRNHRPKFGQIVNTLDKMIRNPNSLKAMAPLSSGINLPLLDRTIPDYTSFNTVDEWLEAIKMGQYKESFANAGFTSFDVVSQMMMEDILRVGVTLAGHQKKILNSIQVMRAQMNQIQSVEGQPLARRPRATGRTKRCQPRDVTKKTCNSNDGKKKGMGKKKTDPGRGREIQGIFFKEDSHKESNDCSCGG

[3] = molecular target: kinases (KINOMEscan panel) (Homo sapiens, UniProt Q07002); details: kinase CDK18; Published KINOMEscan; ref original PKIS2 published data; cited from earlier work
[4] = molecular target: T3, kinases (KINOMEscan panel) (Homo sapiens, UniProt P51817); details: kinase PRKX; Published KINOMEscan; ref original PKIS2 published data; cited from earlier work
T3 sequence (P51817 1-358): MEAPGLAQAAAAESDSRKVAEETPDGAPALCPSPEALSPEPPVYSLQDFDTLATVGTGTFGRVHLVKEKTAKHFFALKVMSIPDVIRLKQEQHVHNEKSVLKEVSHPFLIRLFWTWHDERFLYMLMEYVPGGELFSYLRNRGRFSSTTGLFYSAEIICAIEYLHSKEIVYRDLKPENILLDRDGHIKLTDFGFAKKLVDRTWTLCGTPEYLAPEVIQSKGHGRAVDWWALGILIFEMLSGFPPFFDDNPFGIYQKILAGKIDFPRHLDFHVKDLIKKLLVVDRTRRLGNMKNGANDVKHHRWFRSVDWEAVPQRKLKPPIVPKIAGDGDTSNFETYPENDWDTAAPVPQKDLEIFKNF

Chain of kinases (KINOMEscan panel) (Homo sapiens, UniProt Q07002) (Q07002 whole entry): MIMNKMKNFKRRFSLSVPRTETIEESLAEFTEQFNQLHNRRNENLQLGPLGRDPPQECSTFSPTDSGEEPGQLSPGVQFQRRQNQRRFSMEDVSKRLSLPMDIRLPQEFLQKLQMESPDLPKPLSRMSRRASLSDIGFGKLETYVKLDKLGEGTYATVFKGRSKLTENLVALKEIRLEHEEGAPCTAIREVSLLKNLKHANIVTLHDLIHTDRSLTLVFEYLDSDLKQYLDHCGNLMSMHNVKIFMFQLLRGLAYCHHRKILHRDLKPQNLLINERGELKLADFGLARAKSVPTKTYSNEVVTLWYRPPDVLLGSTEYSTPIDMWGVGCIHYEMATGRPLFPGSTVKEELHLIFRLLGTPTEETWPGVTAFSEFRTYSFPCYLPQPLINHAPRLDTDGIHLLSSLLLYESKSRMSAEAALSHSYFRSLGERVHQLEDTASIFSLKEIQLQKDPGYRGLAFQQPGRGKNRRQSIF

## Cc1cccc(-c2nc(Nc3ccncc3)c3ccccc3n2)n1 [NK215]
[1]
  KINOMEscan ANKK1: 0
[2]
  KINOMEscan EPHB2: 16
[3]
  KINOMEscan CDK18: 0
[4]
  KINOMEscan PRKX: 0
